Experiments:
[1] = Storage stability and appearance of intranasal repaglinide formulations; format: physicochemical; details: solution pH
Experimental: In one embodiment, a composition of the invention comprises at least 85%, at least 87%, at least 90%, at least 92%, at least 95%, at least 97%, or at least 99% of the original hypoglycemic agent (e.g., repaglinide) after storage (closed or open vessel) at 40° C. and 75% relative humidity for a period of at least 1 week, at least 2 weeks, at least 3 weeks, at least 4 weeks, at least 6 weeks, at least 8 weeks, at least 10 weeks, at least 15 weeks, at least 20 weeks, at least 25 weeks, at least 30 weeks, at least 35 weeks, at least 40 weeks, at least 45 weeks, or at least 50 weeks The formulations described in Table 1 below have shown good stability for a period of about one month. In particular, the formulations described in Example 1 below have shown no precipitation and have remained clear and colorless for a period of about one month.

[2] = Solubility of repaglinide in formulation vehicles; format: physicochemical; details: in 100% methoxy-polyethylene glycol, 350

pH of solutions in which repaglinide was often more stable [1]: less than or equal to 9 | solubility of repaglinide [2]: poorly soluble or insoluble
SMILES: CCOc1cc(CC(=O)N[C@@H](CC(C)C)c2ccccc2N2CCCCC2)ccc1C(=O)O [repaglinide, Repaglinide]

From US20090318502A1, “Pharmaceutical Compositions Comprising a Hypoglycemic Agent and Methods of Using Same” (INTRANASAL THERAPEUTICS, INC., priority 2006, published 2009)
